In patent US20200281949A1, “METHODS FOR TREATING CASTRATION-RESISTANT AND CASTRATION-SENSITIVE PROSTATE CANCER” (TOLERO PHARMACEUTICALS, INC., priority 2018, published 2020):

Columns and labels:
[1] = tested on: PC3 cells; experiment: Cell viability assay in PC3 prostate cancer cells; format: cell-based; conditions: Homo sapiens, PC-3, alvocidib 3.9 nM-1000 nM
Procedure: (§1) The compound of structure (I), and pharmaceutically acceptable salts and zwitterionic forms thereof, is converted in vivo to alvocidib (see U.S. Patent Publication No. US 2016/0340376, the full disclosure of which is hereby incorporated by reference in its entirety). Therefore, the in vitro effects of alvocidib were evaluated in multiple prostate cancer cell lines with varied sensitivity to androgen. PC3 is an AR-negative prostate cancer cell line with little to no expression of PSA and low sensitivity to androgens. VCAP is a prostate cancer cell line that is positive for ARv7, and can grow in an androgen-independent manner. LNCAP is an androgen-dependent prostate cancer cell line. 22Rv1 is a prostate cancer cell line that is positive for ARv7, has low sensitivity to androgen, and is derived from a xenograft that was serially propagated in mice after castration-induced regression and relapse of the parental, androgen-dependent CWR22 xenograft. […] Cell viability may be assessed, for example, using CellTiter-Glo according to manufacturer protocol.

[2] = tested on: VCAP cells; experiment: Cell viability assay in VCAP prostate cancer cells; format: cell-based; conditions: Homo sapiens, alvocidib 3.9 nM-1000 nM
Procedure: as §1

[3] = tested on: LNCaP cells; experiment: Cell viability assay in LNCaP prostate cancer cells; format: cell-based; conditions: Homo sapiens, alvocidib 3.9 nM-1000 nM
Procedure: as §1

[4] = tested on: 22Rv1 cells; experiment: Cell viability assay in 22Rv1 prostate cancer cells; format: cell-based; conditions: Homo sapiens, alvocidib 0.0026 nM-1000 nM
Procedure: as §1

[5] = tested on: androgen receptor (phospho- and total-AR) in 22Rv1 and LNCaP cells; experiment: Immunoblotting of androgen receptor in serum-stimulated prostate cancer cells; format: cell-based, human; conditions: 80 nM or 160 nM, 24 hours of treatment, serum stimulated 1 hour before collection
Procedure: In a first experiment to evaluate the effects of alvocidib on serum stimulated prostate cancer cells, androgen receptor expression was assessed by immunoblotting. […] The prostate cancer cells, 22Rv1 or LNCaP, were treated with DMSO or alvocidib (80 nM or 160 nM), for either 3 hours or 24 hours, and were serum stimulated one hour prior to sample collection (or the cells were serum starved as a control).

[6] = tested on: TMPRSS2 expression in 22Rv1 cells; experiment: Quantitative real-time PCR of TMPRSS2 mRNA in serum-stimulated 22Rv1 cells; format: cell-based, human; conditions: 80 nM or 160 nM, 3 or 24 hours, 22Rv1 cells serum stimulated 1 hour before collection
Procedure: In another experiment; androgen receptor expression and functionality were assessed using quantitative real-time PCR measurement of the mRNA level of transmembrane protease, serine 2 (TMPRSS2) mRNA levels in prostate cancer cell line 22Rv1, as described in Chen et al., 2012. […] TMPRSS1 is an androgen-responsive gene, which is transcriptionally regulated by androgen receptor. An androgen response may be driven by the addition of exogenous testosterone; or by serum stimulation (which contains androgens), in prostate cancer cell lines.
The 22Rv1 cells were treated with DMSO or alvocidib (80 nM or 160 nM) for either 3 hours or 24 hours, and serum stimulated one hour prior to sample collection (or the cells were serum starved as a control).

[7] = tested on: PSA expression in 22Rv1 cells; experiment: PSA expression in serum-stimulated 22Rv1 cells; format: cell-based, human; conditions: 80 nM or 160 nM, 24 hours
Procedure: The 22Rv1 cells were treated with DMSO or alvocidib (80 nM or 160 nM) for 24 hours, and serum stimulated either 3 hours or 23 hours following treatment (or the cells were serum starved as a control).

[8] = tested on: RNA Pol II phosphorylation in 22Rv1 cells; experiment: RNA Pol II phosphorylation by flow cytometry in 22Rv1 cells; format: cell-based, human; conditions: 80 nM or 160 nM, three hours, 10% serum stimulated 1 hour before collection; vs DMSO
Procedure: To evaluate the effects of alvocidib on serum-stimulated prostate cancer cells, RNA Polymerase (Pol) II phosphorylation was assessed by flow cytometry. The prostate cancer cells, 22Rv1 cells, were treated with DMSO or alvocidib (80 nM or 160 nM) for three hours, and were serum stimulated (10%) one hour prior to sample collection. Goat anti-rabbit IgG H&L was used as an isotype control.

[9] = tested on: PSA in VCaP cells; experiment: PSA protein level by Western blot in VCaP cells; format: cell-based; conditions: 25 nM or 100 nM, 48 hours, vs vehicle
Procedure: (§2) On the day of the treatment, the media was replaced with 10 mL of fresh media. […] Cells were collected by scraping, washed in PBS, and lysed using sonication in RIPA buffer supplemented with protease and phosphatase inhibitors. […] of protein was loaded into a 4-12% gel, and transferred to a nitrocellulose membrane. Blocking, anti-actin, and secondary staining was done in 5% milk. Anti-PSA antibody was diluted in BSA.

[10] = tested on: PSA in LNCaP cells; experiment: PSA protein level by Western blot in LNCaP cells; format: cell-based, human; conditions: 25 nM or 100 nM, 48 hours, vs vehicle
Procedure: as §2

[11] = tested on: LNCaP cells (caspase 3 cleavage); experiment: Cell death by caspase 3 cleavage Western blot in LNCaP cells; format: cell-based, human; conditions: 100 nM, 48 hours, 10% serum
Procedure: LNCaP cells were treated with 100 nM alvocidib for 48 hours in regular 10% serum conditions. Cells were collected by scraping, washed in PBS, and lysed using sonication in RIPA buffer supplemented with protease and phosphatase inhibitors. […] of protein was loaded into a 4-12% gel, and transferred to a PVDF membrane. Blocking and staining was performed in 5% milk. […] Anti-actin was used as a loading control.

[12] = PK analysis in PC-3 mouse xenograft model (plasma and tumor, LC-MS/MS); format: in vivo; conditions: 24 hours after oral gavage of compound of structure (I) 7.5 or 15 mg/kg; PC-3 xenograft mice
Procedure: PC-3 prostate tumor cells were maintained in vitro as a monolayer culture in Ham's F12K medium supplemented with 10% fetal bovine serum at 37° C. in an atmosphere of 5% CO2 in air. The cells in an exponential growth phase were harvested and counted for tumor inoculation. Each mouse was inoculated subcutaneously at the right flank region with PC-3 prostate tumor cells (5×10^6 cells) in 0.1 ml of PBS for tumor development. When the mean tumor size reached approximately 300 mm^3, the mice were randomized and divided into study groups.

[13] = Phase I dose-escalation study in patients with advanced solid tumors: plasma PK; format: in vivo, human; conditions: for Tmax: plasma alvocidib, Cohort 5, 6 mg BID oral compound of structure (I) (Formulation No. 401-01)
Procedure: Plasma PK parameters of compound of structure (I) and alvocidib were evaluated in Cohorts 1-5 at specific timepoints during the study. Blood was collected from patients in Cohorts 1-5 according to the pharmacokinetic sampling schedule described in Table 9.
PK parameters were estimated using standard noncompartmental methods. Actual sample collection times were used rather than scheduled collection times. Plasma concentrations below the limit of quantification were treated as 0. Imbedded missing plasma concentrations (e.g., missing values between two observed values) were estimated using linear […]. This is consistent with using the trapezoidal rule to calculate AUC. Other missing plasma concentrations were excluded from calculations to estimate PK parameters.

[14] = tested on: subcutaneous 22Rv1 human prostate cancer xenograft; experiment: Efficacy study in the 22Rv1 xenograft prostate cancer model; format: in vivo, male BALB/c nude mice; conditions: castrated mice, 21 days; doses per Table 1: Cmpd Str (I) 1.25 mg/kg p.o. BID or 10 mg/kg p.o. Q7D; enzalutamide 30 mg/kg p.o. QD; docetaxel 10 mg/kg i.p. Q7D; ABT199 100 mg/kg p.o. QD
Procedure: The objective of this study was to evaluate the in vivo therapeutic efficacy of the compound of structure (I) or a pharmaceutically acceptable salt or zwitterionic form thereof in the treatment of a subcutaneous 22Rv1 human prostate cancer xenograft model. For the 22Rv1 model, efficacy of the compound of structure (I) was evaluated in male BALB/c nude mice. Cobalt-60 irradiation of all mice was performed 2 days before the tumor inoculation at 2 Gy (1 Gy=100 rads). Each mouse was inoculated at the right flank with 1×10^7 tumor cells in 0.1 ml of PBS mixed with matrigel (1:1). The date of tumor cell inoculation was denoted as day 0.
Castration was performed when mean tumor volume reached approximately 200 mm^3. Mice were anesthetized with ketamine/xylazine; surgical castration was performed via a midline scrotal incision allowing bilateral access to the hemiscrotal contents; after exposing each testicle, a 6-0 Vicryl suture was used to ligate the spermatic cord and then remove the testicle; the scrota and skin was then closed with 6-0 Vicryl suture, separately. Treatments started when the mean tumor volume re-grew to approximately 100 mm^3.
After tumors reached the appropriate size, approximately 100-200 mm^3, mice were randomized into treatment groups 1-11, which are shown in Table 1. Each treatment was administered starting on day 15, at a dosing volume of 5 μL/g and continued for 21 days (or 22 days for groups with treatment at Q7D). For groups with treatment at Q7D×3 weeks, dosing was performed on days 1, 8, and 15 post-randomization, and the study was terminated on day 22 post randomization. The combined treatment intervals were each 0 h, and the interval for BID was 8 h. Randomization was performed based on the “Matched distribution” method (StudyDirector™ software, version 3.1.399.19) randomized block design.
Tumor volumes were measured twice per week after randomization in two dimensions using a caliper, and the volume was expressed in mm^3 using the formula: “V=(L×W×W)/2,” where V is tumor volume, L is tumor length (the longest tumor dimension) and W is tumor width (the longest tumor dimension perpendicular to L). The average tumor volume for each group, as a percentage of the average tumor volume of the control group (group 1), is shown in FIG. 6. […] The percentage shown in FIG. 7 (% T/C) is calculated as mean(T)/mean(C)*100%, with “T” representing tumor volume and “C” representing tumor volume for group 1.
T and C are the mean tumor volume (or weight) of the treated groups and control group (group 1), respectively, on a given day. The percentages shown in FIG. 10 are calculated as % ΔT/C=(mean(T)−mean(T0))/(mean(C)−mean(C0))*100%, with “0” indicating the initial timepoint.

CN1CC[C@H](c2c(O)cc(O)c3c(=O)cc(-c4ccccc4Cl)oc23)[C@H](O)C1 [alvocidib, 2-(2-chlorophenyl)-5,7-dihydroxy-8-[(3S,4R)-3-hydroxy-1-methylpiperidin-4-yl]chromen-4-one]
IC50 [1]: 102 nM | IC50 [2]: 34.5 nM | IC50 [3]: 31.8 nM | IC50 [4]: 169 nM | phospho- and total-AR protein levels [5]: lowers phospho- and total-AR levels | serum-stimulated induction of TMPRSS2 expression [6]: inhibited serum-stimulated induction of TMPRSS2 | serum stimulated induction of PSA expression [7]: inhibited serum stimulated induction of PSA | RNA Pol II phosphorylation staining (flow cytometry) [8]: dose-dependent reduction | PSA expression at protein level [9]: inhibited PSA expression | PSA expression at protein level [10]: inhibited PSA expression | cell death, as indicated by caspase 3 cleavage [11]: induced cell death | retention of alvocidib in plasma and tumor [12]: retained in plasma and tumor tissues | accumulation of alvocidib in plasma ([13]; Cohort 1, 1 mg QD oral Formulation No. 401-01, Subject 104, after 24 hours on day 14): some accumulation | change in average Cmax and AUC of alvocidib from day 1 to day 14 ([13]; Cohort 2, 1 mg BID oral Formulation No. 401-01): marked increase | Tmax ([13]; Cycle 1 Day 1, Mean of subjects 501-503): 60 min | Tmax ([13]; Cycle 1 Day 1, Subject 501): 30 min | Tmax ([13]; Cycle 1 Day 1, Subject 502): 120 min | Tmax ([13]; Cycle 1 Day 1, Subject 503): 30 min | Tmax ([13]; Cycle 1 Day 14, Mean of subjects 501-503): 60 min | Tmax ([13]; Cycle 1 Day 14, Subject 501): 30 min | Tmax ([13]; Cycle 1 Day 14, Subject 502): 120 min | Tmax ([13]; Cycle 1 Day 14, Subject 503): 30 min

CC(=O)O[C@@]12CO[C@@H]1C[C@H](O)[C@@]1(C)C(=O)[C@H](O)C3=C(C)[C@@H](OC(=O)[C@H](O)[C@@H](NC(=O)OC(C)(C)C)c4ccccc4)C[C@@](O)([C@@H](OC(=O)c4ccccc4)[C@H]21)C3(C)C [docetaxel, 1,7β,10β-trihydroxy-9-oxo-5β,20-epoxytax-11-ene-2α,4,13α-triyl 4-acetate 2-benzoate 13-{(2R,3S)-3-[(tert-butoxycarbonyl)amino]-2-hydroxy-3-phenylpropanoate}]
anti-cancer activity in the 22Rv1 xenograft model (tumor growth) [14]: not active

CNC(=O)c1ccc(N2C(=S)N(c3ccc(C#N)c(C(F)(F)F)c3)C(=O)C2(C)C)cc1F [enzalutamide, 4-(3-(4-cyano-3-(trifluoromethyl)phenyl)-5,5-dimethyl-4-oxo-2-thioxoimidazolidin-1-yl)-2-fluoro-N-methylbenzamide]
anti-cancer activity in the 22Rv1 xenograft model (tumor growth) [14]: not active

CC1(C)CCC(CN2CCN(c3ccc(C(=O)NS(=O)(=O)c4ccc(NCC5CCOCC5)c([N+](=O)[O-])c4)c(Oc4cnc5[nH]ccc5c4)c3)CC2)=C(c2ccc(Cl)cc2)C1 [venetoclax]
anti-cancer activity in the 22Rv1 xenograft model (tumor growth) [14]: not active
